Data reported in patent US7393918B2, “Protein binding miniature proteins and uses thereof” (priority 2003, dated 2008).

Legend:
L. monocytogenes = L. monocytogenes actin-based motility in Xenopus laevis egg cytoplasmic extracts; set-up: species or system Listeria monocytogenes
Experimental: Errors bars show the intraquartile range.
L. monocytogenes motility in mammalian cells and extracts is due to interactions between the 639-residue bacterial protein ActA and host proteins that recruit and activate actin polymerization. Addition of 10 μM ActA11 decreased the median speed of L. monocytogenes by 89%, consistent with previous work. […] Further experimentation will be required to fully understand the molecular events that result in altered motility.

Mena1-112 EVH1 domain = Mena1-112 EVH1 domain (Mus musculus, UniProt Q03173); experiment: tryptophan fluorescence perturbation analysis of EVH1 domain binding; conditions: all EVH1 domains tested (Mena1-112, VASP1-115, Evl1-115)
Mena1-112 = Mena1-112 (Mus musculus, UniProt Q03173); experiment: competition with pGolemi^Flu for binding to Mena1-112; conditions: read-out: IC50, competition with pGolemi^Flu for binding to Mena1-112
Mena1-112, sequence (Q03173 1-112): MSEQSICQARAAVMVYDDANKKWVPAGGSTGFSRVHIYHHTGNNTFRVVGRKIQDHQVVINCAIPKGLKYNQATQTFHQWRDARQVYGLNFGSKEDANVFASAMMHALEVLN

Mena1-112 EVH1 domain, sequence (Q03173 1-112): as above

## ActA11: 11 residue peptide comprising PPII repeat 2 of L. monocytogenes ActA; best previously known Mena ligand (DFPPPPTDEEL; ActA11, peptide comprising PPII repeat of ActA protein)
L. monocytogenes; 10 μM
  decrease of median speed of L. monocytogenes: 89%
L. monocytogenes; any concentration tested
  discontinuous tail formation of L. monocytogenes: Discontinuous tails were not observed
Mena1-112 EVH1 domain
  Krel among EVH1 domains: < 3
Mena1-112
  IC50: 4 ± 0.2 µM
